We go through 11 compounds from ChEMBL document CHEMBL1201862, “PubChem BioAssay data set” (2004).

Among the test systems are RXF 393; NCI/ADR-RES; HL-60; OVCAR-4; OVCAR-5; MDA-N; MCF7; KM12; SF-268; K562; UO-31; MDA-MB-231; NCI-H522; U-251; NCI-H23; SK-MEL-28; DU-145; SK-OV-3; HCT-15; CAKI-1.
Test in all cases: inhibition of tumour cell growth, NCI panel, 48 h

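Values below derive from 48-hour exposures of cells grown in 96-well plates, with endpoints linearly interpolated between the two concentrations bracketing the appropriate inhibition level. GI50 = concentration required for 50% inhibition of growth.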 The source made the active and inactive calls. Rule as the data show it: active = GI50 up to about 1.1 µM and inactive = higher.

In the case of `COC(NC(=O)Nc1ccc(C)cc1)(C(F)(F)F)C(F)(F)F`, the GI50 in the test on RXF 393 is 23.1 µM (inactive); in the test with NCI/ADR-RES, 25.9 µM (inactive); with HL-60 it was > 100 µM (inactive); with OVCAR-4 it was 34.2 µM (inactive); in the test on OVCAR-5, 34.9 µM (inactive); with MDA-N, 26.4 µM (inactive). The GI50 in the test on MCF7 was 41.3 µM (inactive); in the test with KM12, 34.7 µM (inactive); with SF-268, 40.4 µM (inactive); in the test on K562, 8.39 µM (inactive); with UO-31, 17.5 µM (inactive); in the test with MDA-MB-231 it was 32.2 µM (inactive). Also, the GI50 with NCI-H522 is 22 µM (inactive); with U-251 it was 18.1 µM (inactive); in the test with NCI-H23, 30.1 µM (inactive); with SK-MEL-28 it was 42.2 µM (inactive); with DU-145, 35.6 µM (inactive); in the test on SK-OV-3, 26.1 µM (inactive).

Take `Cc1cc2c(c(=O)o1)C1=S(SC(c3ccccc3)=C1)S2` (stereo unspecified): the GI50 with RXF 393 was 20.2 µM (inactive); with NCI/ADR-RES it was 83.4 µM (inactive); with OVCAR-4 it was 29 µM (inactive); with OVCAR-5, 78.9 µM (inactive); with MDA-N it was > 100 µM (inactive); in the test on MCF7 it was 29.6 µM (inactive). Further, the GI50 is greater than 100 µM with HCT-15; 84.3 µM (inactive) in the test on KM12; 45.7 µM (inactive) in the test on SF-268; 38.4 µM (inactive) with K562; 26.5 µM (inactive) with UO-31; 57.4 µM (inactive) in the test on MDA-MB-231. In addition, the GI50 in the test on NCI-H522 was 37.6 µM (inactive); with U-251 it was 22.5 µM (inactive); with NCI-H23 it was 78.9 µM (inactive); in the test with SK-MEL-28 it was > 100 µM (inactive); in the test with DU-145, 36.3 µM (inactive); in the test with SK-OV-3, 23.8 µM (inactive).

As for `COc1ccccc1NS(=O)(=O)c1ccc2ncn(NS(=O)(=O)c3ccc(Cl)cc3)c(=O)c2c1`, the GI50 in the test with NCI/ADR-RES was > 100 µM (inactive); in the test with HL-60, 85.7 µM (inactive); with OVCAR-4 it was > 100 µM (inactive); in the test on OVCAR-5, 63 µM (inactive); in the test on MDA-N, 67.9 µM (inactive); in the test with MCF7, > 100 µM (inactive). Also, the GI50 with HCT-15 was greater than 100 µM; in the test with KM12, 61.4 µM (inactive); with SF-268, > 100 µM (inactive); in the test on K562 it was 3.36 µM (inactive); in the test with UO-31, 35.2 µM (inactive); in the test on MDA-MB-231, > 100 µM (inactive). Also, the GI50 in the test with NCI-H522, with U-251, in the test on CAKI-1, in the test on NCI-H23, in the test on SK-MEL-28 and in the test on DU-145 was > 100 µM (inactive) in each case. The GI50 in the test on SK-OV-3 was > 100 µM (inactive).

For `CC(=O)OC/C=C/Cn1ncc(=O)[nH]c1=O`, the GI50 in the test on RXF 393, in the test with NCI/ADR-RES, in the test with HL-60, in the test on OVCAR-5, with MDA-N and with MCF7 was > 100 µM (inactive) in each case. Moreover, the GI50 in the test with HCT-15 is greater than 100 µM; in the test on KM12, > 100 µM (inactive); in the test with SF-268, > 100 µM (inactive); in the test with K562 it was > 100 µM (inactive); with UO-31 it was > 100 µM (inactive); in the test on MDA-MB-231 it was > 100 µM (inactive). For the same compound, the GI50 is > 100 µM (inactive) in the test on NCI-H522; > 100 µM (inactive) with U-251; > 100 µM (inactive) in the test with CAKI-1; > 10 µM (inactive) in the test on NCI-H23; > 100 µM (inactive) in the test with SK-MEL-28; > 100 µM (inactive) in the test on DU-145.

In the case of `CC1C2CCC3C(O)C2(CC(O)C2(O)C1CC(O)C2(C)C)CC3(C)O` (stereo unspecified), the GI50 in the test with NCI/ADR-RES, in the test on HL-60, in the test on OVCAR-4, in the test with OVCAR-5, in the test with MDA-N and in the test on MCF7 was > 100 µM (inactive) throughout. In addition, the GI50 in the test with HCT-15 is greater than 100 µM; in the test with KM12, > 100 µM (inactive); in the test with SF-268 it was > 100 µM (inactive); in the test with K562, > 100 µM (inactive); in the test on UO-31, > 100 µM (inactive); with MDA-MB-231 it was 35.8 µM (inactive). Further, the GI50 in the test with NCI-H522, with U-251, in the test with CAKI-1, with NCI-H23, with SK-MEL-28 and with DU-145 was > 100 µM (inactive) each time. Also, in the test on SK-OV-3, the GI50 was > 100 µM (inactive).

`C/C=C\C(CC(=O)NCCC1CN(C(=O)OCc2ccccc2)c2ccccc21)CC(=O)OC` (stereo unspecified): the GI50 with RXF 393, with NCI/ADR-RES, in the test with OVCAR-4, with OVCAR-5, with MDA-N and in the test on MCF7 was > 100 µM (inactive) throughout. The GI50 is greater than 100 µM in the test on HCT-15; > 100 µM (inactive) in the test with KM12; > 100 µM (inactive) with SF-268; > 100 µM (inactive) with K562; > 100 µM (inactive) in the test on UO-31; > 100 µM (inactive) in the test on MDA-MB-231. Besides, the GI50 in the test on NCI-H522, in the test with U-251, with CAKI-1, in the test with NCI-H23, in the test with SK-MEL-28 and in the test on DU-145 was > 100 µM (inactive) in each case. Also, the GI50 in the test on SK-OV-3 was > 100 µM (inactive).

`Cc1cc(-c2[nH]c(C(=O)O)cc2I)on1`: the GI50 in the test on RXF 393 is 24 µM (inactive); in the test on NCI/ADR-RES, > 100 µM (inactive); in the test with OVCAR-4, > 100 µM (inactive); in the test with OVCAR-5, 29.2 µM (inactive); in the test with MDA-N, > 100 µM (inactive); in the test with MCF7 it was > 100 µM (inactive). For the same compound, the GI50 was greater than 100 µM with HCT-15; > 100 µM (inactive) in the test on KM12; 68.7 µM (inactive) with SF-268; > 100 µM (inactive) in the test on K562; 40.5 µM (inactive) in the test with UO-31; 75.2 µM (inactive) in the test on MDA-MB-231. The GI50 in the test with NCI-H522 was > 100 µM (inactive); in the test with U-251, 40.9 µM (inactive); in the test on CAKI-1, 93.1 µM (inactive); with NCI-H23, 51.2 µM (inactive); in the test with SK-MEL-28 it was > 100 µM (inactive); in the test with DU-145, > 100 µM (inactive). Besides, the GI50 with SK-OV-3 was 76 µM (inactive).

Take `COC(=O)c1ccc(NCC2=CC(=O)C=CC2=O)cc1`: the GI50 was 4.38 µM (inactive) in the test with NCI/ADR-RES; 2.33 µM (inactive) in the test with HL-60; 12.4 µM (inactive) with OVCAR-4; 16.7 µM (inactive) with OVCAR-5; 11.4 µM (inactive) in the test on MDA-N; 14.2 µM (inactive) in the test on MCF7. Besides, the GI50 with HCT-15 is 12.5 µM; in the test with KM12, 13.6 µM (inactive); with SF-268, 13.7 µM (inactive); in the test on K562 it was 2.69 µM (inactive); with UO-31, 7.08 µM (inactive); in the test on MDA-MB-231, 14.2 µM (inactive). In addition, the GI50 with NCI-H522 is 1.7 µM (inactive); with U-251 it was 13.6 µM (inactive); in the test on CAKI-1, 2.4 µM (inactive); with NCI-H23, 14.5 µM (inactive); in the test on SK-MEL-28, 15.1 µM (inactive); with DU-145, 15.5 µM (inactive). Moreover, in the test with SK-OV-3, the GI50 is 16.7 µM (inactive).

On to `Cc1ccc(C(=O)OC(C)C)cc1/N=N/N(C)C`, for which the GI50 was 98.4 µM (inactive) in the test on NCI/ADR-RES; 39.8 µM (inactive) with HL-60; > 75.2 µM (inactive) with OVCAR-4; > 100 µM (inactive) in the test on OVCAR-5; > 100 µM (inactive) with MDA-N; > 100 µM (inactive) with MCF7. Moreover, the GI50 is greater than 100 µM in the test with HCT-15; > 84.5 µM (inactive) with KM12; > 68.7 µM (inactive) in the test with SF-268; > 100 µM (inactive) in the test on K562; 70 µM (inactive) in the test with UO-31; > 100 µM (inactive) in the test on MDA-MB-231. Also, the GI50 was 31.1 µM (inactive) in the test with NCI-H522; > 71.4 µM (inactive) in the test with U-251; 83 µM (inactive) with CAKI-1; 45.3 µM (inactive) in the test on NCI-H23; > 100 µM (inactive) with SK-MEL-28; > 100 µM (inactive) in the test with DU-145. Moreover, the GI50 in the test on SK-OV-3 is > 100 µM (inactive).

As for `COc1c2c(cc3nc4ccccc4nc13)CC[C@H](NC(C)=O)c1cc(=O)c(SC)ccc1-2`, the GI50 with RXF 393 is 2.74 µM (inactive); with NCI/ADR-RES, 12.5 µM (inactive); with OVCAR-4, 4.27 µM (inactive); in the test with OVCAR-5, 24.5 µM (inactive); with MDA-N, 0.18 µM (active); in the test on MCF7, 0.327 µM (active). In addition, the GI50 in the test on HCT-15 is 2.84 µM; with KM12 it was 0.273 µM (active); with SF-268, 1.15 µM (inactive); in the test on K562, 0.29 µM (active); in the test on UO-31 it was 5.09 µM (inactive); in the test with MDA-MB-231 it was 2.96 µM (inactive). Moreover, the GI50 with NCI-H522 is 0.275 µM (active); with U-251, 0.353 µM (active); in the test with CAKI-1, 5.62 µM (inactive); in the test on NCI-H23 it was 0.238 µM (active); in the test on SK-MEL-28, 12.7 µM (inactive); in the test with DU-145 it was 2.47 µM (inactive). For the same compound, the GI50 in the test with SK-OV-3 was 5.28 µM (inactive).

Regarding `COc1ccc2c(c1OC)CN1CCc3cc4c(cc3C1C2)OCO4` (stereo unspecified) [TETRAHYDROBERBERINE], the GI50 in the test with NCI/ADR-RES, with HL-60, in the test with OVCAR-4, in the test on OVCAR-5, with MDA-N and in the test on MCF7 was > 100 µM (inactive) throughout. The GI50 in the test on HCT-15 is greater than 100 µM; in the test with KM12 it was > 100 µM (inactive); with SF-268, > 100 µM (inactive); with K562, 80 µM (inactive); with UO-31, > 100 µM (inactive); with MDA-MB-231 it was > 100 µM (inactive). For the same compound, the GI50 in the test on NCI-H522, in the test with U-251, with CAKI-1, in the test on NCI-H23, with SK-MEL-28 and in the test with DU-145 was > 100 µM (inactive) in each case. The GI50 in the test with SK-OV-3 was > 100 µM (inactive).
